≈ marks a conversion by molar mass, not a printed value. Where “and” joins values, the source holds several entries; their conditions need not be identical. Identical values can stand only once.
What was measured:
[1] = tested on: M. smegmatis (ATCC 14468); experiment: Microtiter broth dilution MIC against M. smegmatis (ATCC 14468); type: cell-based; settings: Mycolicibacterium smegmatis, ATCC14468, 72 h, 37 °C, MTT
[2] = tested on: human diploid embryonic lung cell line MRC-5; experiment: XTT cytotoxicity assay on MRC-5 cells; type: cell-based; settings: XTT
Protocol: In order to assess the cytotoxicity of these novel quinolone derivatives, the effect on the viability of a human lung fibroblast cell line MRC-5, was measured using XTT proliferation assay. […] In addition, the position of the triple bond in the side chain seems to have a significant influence on cytotoxcity which is increased in compounds with a triple bond more distant to the quinolone nucleus. This can be concluded by comparing results of 8l, 8n, 8p, and 8r having similar antimycobacterial activity on M. smegmatis but different cytotoxcity depending on triple bond position.
The cytotoxic activity of the synthetic compounds was determined by means of an XTT Cell Proliferation Kit II (Roche Diagnostics, Mannheim, Germany) using the human diploid embryonic lung cell line MRC-5 [11]. The quinolone derivatives were tested at concentrations of 100, 60, 30 and 10 µM in triplicate and the percentage of viable cells at each concentration was determined by comparing with the control.

M. smegmatis mc^2155 = experiment: Broth dilution MIC against M. smegmatis mc^2155; type: cell-based; settings: Mycolicibacterium smegmatis, 72 h
M. fortuitum (ATCC 6841) = experiment: Broth dilution MIC against M. fortuitum; type: cell-based; settings: Mycolicibacterium fortuitum, ATCC6841, 72 h
M. phlei (ATCC 11758) = experiment: Broth dilution MIC against M. phlei; type: cell-based; settings: Mycolicibacterium phlei, ATCC11758, 72 h
[3] = tested on: M. bovis BCG (ATCC 35734); experiment: microbe, parasite or virus in culture; type: cell-based; settings: Mycobacterium tuberculosis variant bovis BCG, 336 h, read-out: MIC M. bovis BCG
S. aureus EMRSA-15 = experiment: Broth dilution MIC against EMRSA-15; type: cell-based; settings: Staphylococcus aureus, EMRSA15, 18 h
S. aureus EMRSA-16 = experiment: Broth dilution MIC against EMRSA-16; type: cell-based; settings: Staphylococcus aureus, EMRSA16, 18 h

| SMILES | MIC [1] | Metabolic active MRC-5 cells (%) ([2]; 10 µM) | Metabolic active MRC-5 cells (%) ([2]; 30 µM) | Metabolic active MRC-5 cells (%) ([2]; 60 µM) | Metabolic active MRC-5 cells (%) ([2]; 100 µM) | also measured |
| --- | --- | --- | --- | --- | --- | --- |
| CCCCCCC#CCCc1cc(=O)c2ccccc2n1C [Compound 8a, 1-Methyl-2-(3′-decynyl)-4(1H)-quinolone] | 32 µg/mL and 108 µM | 100 ± 1.05 | 98.4 ± 1.07 | 97.5 ± 0.74 | 89.3 ± 2.94 | – |
| CCCCCCC#CCCc1cc(=O)c2ccccc2n1CC [Compound 8b, 1-Ethyl-2-(3'-decynyl)-4(1H)-quinolone] | 16 µg/mL and 51.8 µM | 102 ± 0.85 | 100 ± 0.73 | 98.4 ± 0.77 | 85.7 ± 1.96 | – |
| CCCCCCC#CCCc1cc(=O)c2ccccc2n1CCC [Compound 8c, 1-(n-Propyl)-2-(3′-decynyl)-4(1H)-quinolone] | 8 µg/mL and 24.8 µM | 103 ± 1.22 | 102 ± 0.42 | 100 ± 0.55 | 100 ± 1.45 | – |
| CCCCCCCC#CCCc1cc(=O)c2ccccc2n1C [Compound 8d, 1-Methyl-2-(3'-undecynyl)-4(1H)-quinolone] | 8 µg/mL and 25.9 µM | 101 ± 1.08 | 99.8 ± 0.52 | 98.7 ± 0.8 | 97.3 ± 0.66 | – |
| CCCCCCCC#CCCc1cc(=O)c2ccccc2n1CC [Compound 8e, 1-Ethyl-2-(3'-undecynyl)-4(1H)-quinolone] | 8 µg/mL and 24.8 µM | 102 ± 1.05 | 101 ± 1.42 | 100 ± 0.56 | 100 ± 1.05 | – |
| CCCCCCCC#CCCc1cc(=O)c2ccccc2n1CCC [Compound 8f, 1-(n-Propyl)-2-(3'-undecynyl)-4(1H)-quinolone] | 4 µg/mL and 11.9 µM | 100 ± 1.05 | 101 ± 1.28 | 91.7 ± 2.77 | 70.9 ± 8.50 | – |
| CCCCCCCCC#Cc1cc(=O)c2ccccc2n1CC [Compound 8g, 1-Ethyl-2-(1'-decynyl)-4(1H)-quinolone] | 2 µg/mL and 6.5 µM | 101 ± 0.97 | 98.7 ± 2.97 | 56.5 ± 2.03 | 12.1 ± 4.79 | MIC (M. smegmatis mc^2155): 4 µg/mL and 12.9 µM; MIC (M. fortuitum (ATCC 6841)): 8 µg/mL and 25.9 µM; MIC (M. phlei (ATCC 11758)): 4 µg/mL and 12.9 µM |
| CCCCCCCCC#Cc1cc(=O)c2ccccc2n1CCC [Compound 8h, 1-(n-Propyl)-2-(1'-decynyl)-4(1H)-quinolone] | 4 µg/mL and 12.4 µM | 103 ± 1.38 | 101 ± 2.47 | 39.5 ± 3.59 | 14.1 ± 7.83 | – |
| CCCCCCCCC#Cc1cc(=O)c2ccccc2n1CCCC [Compound 8i, 1-(n-Butyl)-2-(1'-decynyl)-4(1H)-quinolone] | 4 µg/mL and 11.9 µM | 103 ± 3.13 | 101 ± 0.81 | 67.2 ± 9.90 | 28.7 ± 8.95 | – |
| CCCCCCCCC#CCCc1cc(=O)c2ccccc2n1C [Compound 8j, 1-Methyl-2-(3'-dodecynyl)-4(1H)-quinolone] | 4 µg/mL and 12.4 µM | 97.6 ± 1.03 | 96.7 ± 1.49 | 95.1 ± 0.81 | 95.84 ± 0.96 | – |
| CCCCCCCCC#CCCc1cc(=O)c2ccccc2n1CC [Compound 8k, 1-Ethyl-2-(3'-dodecynyl)-4(1H)-quinolone] | 4 µg/mL and 11.9 µM | 97.6 ± 1.69 | 95.1 ± 1.04 | 94.7 ± 0.92 | 74.8 ± 1.99 | melting point: 66 to 68 °C |
| CCCCCCCCCCC#CCCc1cc(=O)c2ccccc2n1CC [Compound 8p, 1-Ethyl-2-(3'-tetradecynyl)-4(1H)-quinolone] | 1 µg/mL and 2.7 µM | 97.3 ± 1.37 | 95.4 ± 0.76 | 93.3 ± 1.13 | 8.75 ± 9.35 | MIC (M. smegmatis mc^2155): 1 µg/mL and 2.7 µM; MIC (M. fortuitum (ATCC 6841)): 4 µg/mL and 10.9 µM; MIC (M. phlei (ATCC 11758)): 2 µg/mL and 5.5 µM; melting point: 74 to 76 °C |
| CCCCCCCCCCCCC#CCCc1cc(=O)c2ccccc2n1C [Compound 8s, 1-Methyl-2-(3′-hexadecynyl)-4(1H)-quinolone] | 128 µg/mL and 338 µM | 93.9 ± 0.61 | 92.2 ± 0.70 | 58.9 ± 3.65 | 41.5 ± 9.49 | melting point: 58 to 61 °C |
| CCCCCCCCCCCCCC#Cc1cc(=O)c2ccccc2n1C [Compound 8t, 1-Methyl-2-(1'-pentadecynyl)-4(1H)-quinolone] | 128 µg/mL and 351 µM | 100 ± 1.01 | 100 ± 1.38 | 98.8 ± 1.28 | 93.8 ± 0.96 | – |
| O=c1cc(/C=C/CCCCCCCCCCBr)n(C2CC2)c2ccccc12 [Compound 18a, 1-Cyclopropyl-2-[(E)-12-bromodec-1'-enyl]-4(1H)-quinolone] | 8 µg/mL and 18.6 µM | – | – | – | – | melting point: 85 to 87 °C |
| O=c1cc(/C=C/CCCCCCCCCCCBr)n(C2CC2)c2ccccc12 [Compound 18b, 1-Cyclopropyl-2-[(E)-13-bromotridec-1'-enyl)-4(1H)-quinolone] | 8 µg/mL and 18.1 µM | – | – | – | – | melting point: 61 to 63 °C |
| Cn1c(/C=C/CCCCCCCCCCBr)cc(=O)c2ccccc21 [Compound 19a, 1-Methyl-2-[(E)-12-bromodec-1'-enyl]-4(1H)-quinolone] | 0.5 µg/mL (≈ 1.24 µM) | – | – | – | – | MIC (M. smegmatis mc^2155): 1 µg/mL and 2.5 µM; MIC (M. fortuitum (ATCC 6841)): 1 µg/mL and 2.5 µM; MIC (M. phlei (ATCC 11758)): 1 µg/mL and 2.5 µM |
| Cn1c(/C=C/CCCCCCCCCCCBr)cc(=O)c2ccccc21 [Compound 19b, 1-Methyl-2-[(E)-13-bromotridec-1'-enyl)-4(1H)-quinolone] | 0.5 µg/mL (≈ 1.19 µM) | – | – | – | – | MIC (M. smegmatis mc^2155): 1 µg/mL and 2.4 µM; MIC (M. fortuitum (ATCC 6841)): 1 µg/mL and 2.4 µM; MIC (M. phlei (ATCC 11758)): 1 µg/mL and 2.4 µM |
| CCCCCCCCCCC/C=C/c1cc(=O)c2ccccc2n1C1CC1 [Compound 22a, 1-Cyclopropyl-2-[(E)-1′-tridecenyl]-4(1H)-quinolone] | 128 µg/mL and 351 µM | – | – | – | – | melting point: 86 to 88 °C |
| CCCCCCCCCCCC/C=C/c1cc(=O)c2ccccc2n1C1CC1 [Compound 22b, 1-Cyclopropyl-2-[(E)-1′-tetradecenyl]-4(1H)-quinolone] | 128 µg/mL and 338 µM | – | – | – | – | melting point: 96 to 98 °C |
| CC[C@@H](CO)NCCN[C@@H](CC)CO [Ethambutol, reference compound] | 2 µg/mL and 9.8 µM | – | – | – | – | MIC (M. smegmatis mc^2155): 4 µg/mL and 19.6 µM; MIC (M. fortuitum (ATCC 6841)): 8 µg/mL and 39.2 µM; MIC (M. phlei (ATCC 11758)): 4 µg/mL and 19.6 µM |
| NNC(=O)c1ccncc1 [Isoniazid, reference compound] | 4 µg/mL and 29.2 µM | – | – | – | – | MIC (M. smegmatis mc^2155): 4 µg/mL and 29.2 µM; MIC (M. fortuitum (ATCC 6841)): 2 µg/mL and 14.6 µM; MIC (M. phlei (ATCC 11758)): 8 µg/mL and 58.3 µM; MIC [3]: 0.1 µg/mL and 0.7 µM |
| CCn1cc(C(=O)O)c(=O)c2cc(F)c(N3CCNCC3)cc21 [Norfloxacin, reference compound] | – | – | – | – | – | MIC (S. aureus EMRSA-15): 0.5 µg/mL and 1.6 µM; MIC (S. aureus EMRSA-16): 128 µg/mL and 401 µM |
| CN(C)[C@@H]1C(O)=C(C(N)=O)C(=O)[C@@]2(O)C(O)=C3C(=O)c4c(O)cccc4[C@@](C)(O)[C@H]3C[C@@H]12 [Tetracycline, reference compound] | – | – | – | – | – | MIC (S. aureus EMRSA-15): 0.25 µg/mL and 0.6 µM; MIC (S. aureus EMRSA-16): 0.25 µg/mL and 0.6 µM |
| CC[C@]1(O)C[C@@H]2CN(CCc3c([nH]c4ccccc34)[C@@](C(=O)OC)(c3cc4c(cc3OC)N(C)[C@H]3[C@@](O)(C(=O)OC)[C@H](OC(C)=O)[C@]5(CC)C=CCN6CC[C@]43[C@@H]65)C2)C1 [Vinblastin, reference compound] | – | – | – | – | – | Metabolic active MRC-5 cells (%) ([2]; 0.12 µM (positive control)): 51.5 ± 2.36% |

Source: article PMC3460366, “Synthesis and Antibacterial Evaluation of a New Series of N-Alkyl-2-alkynyl/(E)-alkenyl-4-(1H)-quinolones” (Molecules, 2012)
